Activity calls are given as the source filed them. The rule behind the calls is not given here.
How the values were obtained:
[1] = target: T1, Peroxisome proliferator-activated receptor alpha (Homo sapiens, UniProt Q07869); test: Agonist activity at human full length PPARalpha expressed in human HepG2 cells co-transfected with PPRE3-TK-luc assessed as […] by firefly luciferase assay; format: functional, cell-based
T1 sequence (Q07869 whole entry): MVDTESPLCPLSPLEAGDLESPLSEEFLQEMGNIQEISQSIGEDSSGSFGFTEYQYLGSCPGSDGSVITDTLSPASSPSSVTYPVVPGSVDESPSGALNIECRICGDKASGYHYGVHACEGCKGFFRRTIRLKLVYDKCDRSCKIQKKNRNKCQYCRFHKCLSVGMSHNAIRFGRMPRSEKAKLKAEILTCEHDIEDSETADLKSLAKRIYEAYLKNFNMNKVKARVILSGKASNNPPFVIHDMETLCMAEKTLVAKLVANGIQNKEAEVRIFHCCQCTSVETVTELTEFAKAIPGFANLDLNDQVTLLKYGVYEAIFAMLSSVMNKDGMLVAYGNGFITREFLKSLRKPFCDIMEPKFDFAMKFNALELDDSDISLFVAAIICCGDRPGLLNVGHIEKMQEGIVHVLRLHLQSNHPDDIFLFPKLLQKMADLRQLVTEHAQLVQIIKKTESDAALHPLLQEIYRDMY

[2] = target: T2, Peroxisome proliferator-activated receptor gamma (Homo sapiens, UniProt P37231); test: Agonist activity at human full length PPARgamma expressed in human HepG2 cells co-transfected with PPRE3-TK-luc assessed as […] by firefly luciferase assay; format: functional, cell-based
T2 sequence (P37231 whole entry): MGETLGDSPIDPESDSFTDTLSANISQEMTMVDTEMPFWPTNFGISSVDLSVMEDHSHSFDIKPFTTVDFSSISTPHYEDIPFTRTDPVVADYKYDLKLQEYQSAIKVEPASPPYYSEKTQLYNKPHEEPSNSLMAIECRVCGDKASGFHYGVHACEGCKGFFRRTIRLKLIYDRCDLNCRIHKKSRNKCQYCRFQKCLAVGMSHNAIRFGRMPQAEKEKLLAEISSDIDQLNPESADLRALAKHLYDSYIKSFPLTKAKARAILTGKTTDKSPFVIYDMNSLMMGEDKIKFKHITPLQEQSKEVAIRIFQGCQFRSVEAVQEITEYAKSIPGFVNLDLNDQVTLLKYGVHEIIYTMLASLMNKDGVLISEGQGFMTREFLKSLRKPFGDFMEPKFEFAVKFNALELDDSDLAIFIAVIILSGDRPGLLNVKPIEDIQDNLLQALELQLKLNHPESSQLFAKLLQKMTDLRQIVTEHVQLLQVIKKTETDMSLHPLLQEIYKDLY

Mus musculus = test: Reduction in serum triglyceride level in Swiss albino mouse at 10 mg/kg/day for 6 days relative to control; format: functional; parameters: scale not given: the % may be the effect or the level left
[3] = target: T3, Peroxisome proliferator-activated receptor alpha (Homo sapiens) (UniProt Q07869); test: Agonist activity at human full length PPARalpha expressed in human HepG2 cells co-transfected with PPRE3-TK-luc assessed as […] by firefly luciferase assay relative to WY-14643; format: functional, cell-based; parameters: concentration or dose not given beside the values
T3 sequence (whole entry): T1 sequence (Q07869 whole entry)

[4] = target: T4, Peroxisome proliferator-activated receptor delta (Homo sapiens) (UniProt Q03181); test: Agonist activity at human full length PPARdelta expressed in human HepG2 cells co-transfected with PPRE3-TK-luc assessed as […] at 1 uM by firefly luciferase assay; format: functional, cell-based
T4 sequence (whole entry): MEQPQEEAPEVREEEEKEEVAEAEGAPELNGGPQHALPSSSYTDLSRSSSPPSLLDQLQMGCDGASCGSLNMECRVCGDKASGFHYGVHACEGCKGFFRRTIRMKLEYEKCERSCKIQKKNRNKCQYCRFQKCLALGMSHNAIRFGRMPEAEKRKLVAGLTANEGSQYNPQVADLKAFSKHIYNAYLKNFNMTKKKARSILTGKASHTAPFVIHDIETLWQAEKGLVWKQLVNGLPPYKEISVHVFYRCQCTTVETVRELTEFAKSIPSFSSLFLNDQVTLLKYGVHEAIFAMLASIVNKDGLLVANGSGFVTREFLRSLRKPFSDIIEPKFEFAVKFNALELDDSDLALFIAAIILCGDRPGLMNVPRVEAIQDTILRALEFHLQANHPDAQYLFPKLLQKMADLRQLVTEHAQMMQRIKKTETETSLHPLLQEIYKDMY

Homo sapiens = organism: Homo sapiens; test: Selectivity for human full length PPARalpha over human full length PPARgamma

Compound	EC50 [1] [µM]	EC50 ([2]; read-out: EC50) [µM]	Activity (Mus musculus) [%]	Activity [3] [%]	Activity [4]	Ratio (Homo sapiens)	EC50 ([2]; hepg2)
CCCCc1cccc(/C(C)=N/OCCCCO/N=C(/CCC(=O)O)c2ccccc2)c1	0.5	0.2	31	85	inactive	–	–
C/C(=N\OCCCCO/N=C(/CCC(=O)O)c1ccccc1)c1ccc2c(c1)CCCC2	0.003	0.2	36	86	inactive	–	–
COc1cc(/C(C)=N/OCCCCO/N=C(/CCC(=O)O)c2ccccc2)ccc1C	0.005	1.6	36	257	inactive	–	–
C/C(=N\OCCCCO/N=C(/CCC(=O)O)c1ccccc1)c1cccc(-c2ccccc2)c1	0.02	0.1	23	83	inactive	–	–
C/C(=N\OCCCCO/N=C(/CCC(=O)O)c1ccccc1)c1ccc2ccccc2c1	0.03	0.2	25	61	inactive	6	–
COc1cc(/C(C)=N/OCCCCO/N=C(/CCC(=O)O)c2ccccc2)ccc1F	0.4	0.7	19	122	inactive	–	–
C/C(=N\OCCCCO/N=C(/CCC(=O)O)c1ccccc1)c1ccc(F)cc1	0.05	1.4	18	101	inactive	–	–
C/C(=N\OCCCCO/N=C(/CCC(=O)O)c1ccccc1)c1ccccc1	2.3	–	–	46	inactive	–	Not Active
COc1ccc(/C(C)=N/OCCCCO/N=C(/CCC(=O)O)c2ccccc2)cc1OC	0.1	0.8	30	136	inactive	–	–
COc1ccc(/C(C)=N/OCCCCO/N=C(/CCC(=O)O)c2ccccc2)cc1	0.01	1.1	35	102	inactive	110	–
C/C(=N\OCCCCO/N=C(/CCC(=O)O)c1ccccc1)c1ccc(S(C)(=O)=O)cc1	2.4	1.9	14	41	inactive	–	–
C/C(=N\OCCCCO/N=C(/CCC(=O)O)c1ccccc1)c1ccc(C)cc1	0.05	2.1	13	78	inactive	–	–
C/C(=N\OCCCCO/N=C(/CCC(=O)O)c1ccccc1)c1ccc(C)c(C)c1	0.002	1	12	89	inactive	320	–
C/C(=N\OCCCCO/N=C(/CCC(=O)O)c1ccccc1)c1ccc(C(F)(F)F)cc1	0.4	1.4	0.6	79	inactive	–	–
Cc1oc(-c2ccccc2)nc1COc1ccc(CO/N=C(\CCC(=O)O)c2ccccc2)cc1 [IMIGLITAZAR]	0.005	–	37	116	inactive	–	–
